Values after ≈ are worked out from the molar mass of the structure shown.
How the values were obtained:
HUVECs = test: Membrane potential by DiOC5(3) flow cytometry in HUVECs; assay type: cell-based, human; conditions: 5 h exposure
Experimental: In an embodiment the membrane potential can be determined by: HUVEC and HaCaT cells were seeded at a density of 4×10^4 cells/cm^2 and in 24-well plates and cultured for 24 h. Either LL37 Au-NPs or Au-NPs suspended in culture medium at different concentrations (25, 50, 100 and 200 μg/mL, n=3) were added to cells. Soluble LL37 were also used in the concentration of 0.5, 1, 10, 30, 60 μg/mL. After 5 and 48 h, cells were harvested, resuspended in medium with 5 nM of DiOC5(3) (Sigma-Aldrich) and incubated for 5 min at room temperature in the dark, prior to the analysis with the flow cytometer (FACSCalibur, BD Biosciences). Cells treated with gramicidin (10 μM) or valinomycin (10 μM) were used as controls for cell depolarization and hyperpolarization, respectively.

HaCaT keratinocyte cells = test: Internalization mechanism (endocytosis inhibitors / siRNA, flow cytometry); assay type: cell-based, human; conditions: vs scrambled siRNA
Experimental: In an embodiment the HaCaT keratinocyte cells were cultured on 24 well plates (1×10^6 cells/well) and inhibited by one of the following chemicals during 30 min before adding a suspension of Rhodamine-labelled NPs (15 μg/mL): dynasor (100 μM), cytochalasin D (100 μM), nocodazole (25 uM), filipin III (1 μM) and polyinosinic acid (100 μg/mL), 5-(N-ethyl-N-isopropyl)amiloride (EIPA), dextran sulfate. The inhibitor concentrations were based in values reported in literature and further validated by us to have no cytotoxic effect over the period of the assay (6 h), as confirmed by viability assay. The incubation of the cells with NPs for different times was performed in the presence of the inhibitor. As controls, HaCaT keratinocyte cells without NPs and cells incubated with NPs without inhibitor were used. […] Cells were then evaluated as before.
In an embodiment the NP uptake mechanism was also studied on HaCaT keratinocyte cells by silencing specific proteins of clathrin-mediated endocytosis (CLTC and LDLR), caveolin-mediated endocytosis (CAV1), GEEC-CCLIC pathways (CDC42) and macropinocytosis (RAC1 and CTBP1) and scavenger receptor (SCARA3) by siRNA (Thermo Fisher). […] In all FACS analysis, a total of 10,000 events were recorded per run. […]

[1] = system: Escherichia coli (ATCC 25922); assay type: cell-based; conditions: 10^5 CFU of E. coli
Experimental: The antimicrobial activity testing may be: Escherichia coli (ATCC 25922) was grown at 37° C. and maintained on LB plates (Luria-Bertani broth with 1.5% agar). […] Aliquots (100 μL) were taken out from the respective suspensions at 2 h intervals and diluted in PBS buffer to give 10^3 bacteria per mL and plated on LB agar plates followed by incubation at 37° C. Colonies were counted after 24 h of incubation. The collected supernatant was tested for antimicrobial activity as described above.

[2] = system: chorioallantoic membrane (CAM); test: Chorioallantoic membrane (CAM) assay; assay type: in vivo; conditions: CAM vs vehicle
Experimental: In an embodiment, the evaluation of the pro-angiogenic properties of LL37-Au NPs. […] The formation of new blood vessels is a prerequisite of tissue repair and wound healing. Therefore, it was evaluated the inductive properties of LL37 and LL37-Au NPs on human umbilical vein endothelial cells (HUVECs) to secrete vascular endothelial growth factor (VEGF165) (FIG. 14b). […] Next, the assessment of the pro-angiogenic activity of LL37 and LL37-Au NPs in a chorioallantoic membrane (CAM) assay was made.

EGFR = EGFR phosphorylation in HaCaT (ELISA); assay type: cell-based, human; conditions: LL37 5 μg/mL; LL37-Au NPs 15 or 200 μg/mL
Experimental: In an embodiment the detection of EGFR and ERK1/2 phosphorylation, can be perform by: the activation of EGFR receptor in HaCaT (80% confluency, in 6-well plates) was induced by starving the cells for 24 h in DMEM supplemented with 1% (v/v) penicillin and adding soluble LL37, LL37-Au NPs and Au NPs for a given period of time. Following treatment, the plates were immersed in ice and the medium was discarded. Then the proteins were isolated from the cells . . . . The levels of EGFR (phosphorylated EGFR and total EGFR) were determined by ELISA kit (R&D Systems). The activation of ERK signaling pathways in HaCaT (80% confluency, in one 96-well cell culture clear-bottom black microplate) were obtained starving the cells for 24 h in DMEM supplemented with 1% (v/v) penicillin and then stimulating them with soluble LL37 (5 μg/mL), LL37-Au NPs and Au NPs (200 μg/mL). After treatments the level of ERK were determined using a phosphoprotein and total protein ELISA kit (R&D Systems ref. KCB1018) according to the manufacture's instructions. Data were acquired with a BioTek synergy MX microplate reader.

venous leg ulcers = conditions: cited from earlier work

Compound: CC[C@H](C)[C@H](NC(=O)[C@H](CCCCN)NC(=O)[C@H](CCC(=O)O)NC(=O)[C@H](CCCCN)NC(=O)[C@H](CO)NC(=O)[C@H](CCCCN)NC(=O)[C@H](CCCNC(=N)N)NC(=O)[C@H](Cc1ccccc1)NC(=O)[C@H](Cc1ccccc1)NC(=O)[C@H](CC(=O)O)NC(=O)CNC(=O)[C@H](CC(C)C)NC(=O)[C@@H](N)CC(C)C)C(=O)NCC(=O)N[C@@H](CCCCN)C(=O)N[C@@H](CCC(=O)O)C(=O)N[C@@H](Cc1ccccc1)C(=O)N[C@@H](CCCCN)C(=O)N[C@@H](CCCNC(=N)N)C(=O)N[C@H](C(=O)N[C@H](C(=O)N[C@@H](CCC(N)=O)C(=O)N[C@@H](CCCNC(=N)N)C(=O)N[C@H](C(=O)N[C@@H](CCCCN)C(=O)N[C@@H](CC(=O)O)C(=O)N[C@@H](Cc1ccccc1)C(=O)N[C@@H](CC(C)C)C(=O)N[C@@H](CCCNC(=N)N)C(=O)N[C@@H](CC(N)=O)C(=O)N[C@@H](CC(C)C)C(=O)N[C@H](C(=O)N1CCC[C@H]1C(=O)N[C@@H](CCCNC(=N)N)C(=O)N[C@H](C(=O)N[C@@H](CCC(=O)O)C(=O)N[C@@H](CO)C(=O)N[C@@H](CS)C(N)=O)[C@@H](C)O)C(C)C)[C@@H](C)CC)C(C)C)[C@@H](C)CC [LL37]
- concentration causing depolarization (HUVECs): above 30 μg/mL
- concentration causing hyperpolarization (HUVECs): below 30 μg/mL
- reduction of uptake upon SCARA3 siRNA knockdown (HaCaT keratinocyte cells): 60%
- minimal inhibition concentration (MIC) [1]: 5 µg/mL (≈ 1.09 µM)
- pro-angiogenic activity (vessel growth) [2]: induced vessel growth
- persistence of EGFR phosphorylation (EGFR): 10 min
- time of peak EGFR phosphorylation (EGFR): 8 min
- primary safety and tolerability end-point (venous leg ulcers; patients with venous leg ulcers): met
- healing rate compared with placebo (venous leg ulcers; twice per week, 0.5 mg/mL): statistically significant improved healing rate
